In patent publication US8071650B2, “Thiourea derivatives and the pharmaceutical compositions containing the same” (Pacific Corporation, priority 2000, dated 2011):
Like-named read-outs stand apart in the source and are kept apart here. Values belong to the molecule of their own block, whether it stands above or below them.

What was measured:
[1] = target: T1, vanilloid receptor (Rattus norvegicus, UniProt O35433); experiment: 45Ca influx test, antagonistic activity against capsaicin (Calcium Uptake Test, IC50); type: cell-based
T1 construct: DRG nerve cells from the primary culture of 2-3 days were equilibrated; endogenous in cells; host or cells: primary culture of dorsal root ganglion neurons from neonatal SD rats
T1 sequence (O35433 whole entry): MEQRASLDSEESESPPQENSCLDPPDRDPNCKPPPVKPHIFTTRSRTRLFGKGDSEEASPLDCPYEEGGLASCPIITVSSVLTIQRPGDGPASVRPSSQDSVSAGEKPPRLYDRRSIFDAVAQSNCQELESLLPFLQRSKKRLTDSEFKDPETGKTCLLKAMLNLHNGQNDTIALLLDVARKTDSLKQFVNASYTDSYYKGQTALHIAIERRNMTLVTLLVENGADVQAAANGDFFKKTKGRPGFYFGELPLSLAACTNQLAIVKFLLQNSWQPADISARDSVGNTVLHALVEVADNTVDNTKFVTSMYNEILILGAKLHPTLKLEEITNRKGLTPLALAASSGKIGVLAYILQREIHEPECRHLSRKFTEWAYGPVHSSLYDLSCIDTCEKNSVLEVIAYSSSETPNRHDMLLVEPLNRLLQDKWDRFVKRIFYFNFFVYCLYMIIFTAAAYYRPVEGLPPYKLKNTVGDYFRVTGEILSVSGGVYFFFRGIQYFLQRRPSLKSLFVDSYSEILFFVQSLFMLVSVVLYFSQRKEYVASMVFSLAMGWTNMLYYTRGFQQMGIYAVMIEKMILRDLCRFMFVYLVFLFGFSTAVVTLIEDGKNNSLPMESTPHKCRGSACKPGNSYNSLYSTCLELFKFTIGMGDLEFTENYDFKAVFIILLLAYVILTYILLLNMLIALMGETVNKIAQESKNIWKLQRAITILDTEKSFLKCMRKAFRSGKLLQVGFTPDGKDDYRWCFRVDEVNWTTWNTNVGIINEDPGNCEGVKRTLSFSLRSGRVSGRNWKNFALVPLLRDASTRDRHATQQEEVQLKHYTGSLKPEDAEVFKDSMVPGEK
Description: 1) Separation of Spinal Dorsal Root Ganglia (DRG) in Newborn Rats and Primary Culture Thereof
Neonatal(2-day old or younger than 2-day old) SD rats were put in ice for 5 minutes to anesthetize and disinfected with 70% ethanol. […] The DRG were incubated sequentially at 37° C. for 30 min in 200 U/ml collagenase and 2.5 mg/ml trypsin, separately. The ganglia were washed twice with DME/F12 medium supplemented with 10% horse serum, triturated through a fire-polished Pasteur pipette, filtered through Nitex 40 membrane to obtain single cell suspension. This was subjected to centrifugation, then re-suspended in cell culture medium at certain level of cell density. As the cell culture medium, DME/F12 medium supplemented with 10% horse serum, diluted 1:1 with identical medium conditioned by C6 glioma cells (2 days on a confluent monolayer) was used, and NGF(Nerve Growth Factor) was added to final concentration of 200 ng/ml. After the cells were grown 2 days in medium where cytosine arabinoside (Ara-C, 100 μM) was added to kill dividing nonneuronal cells, medium was changed to one without Ara-C. The resuspended cells were plated at a density of 1500-1700 neurons/well onto Terasaki plates previously coated with 10 μg/ml poly-D-ornithine.
2) ^45Ca Influx Experiments
DRG nerve cells from the primary culture of 2-3 days were equilibrated by washing 4 times with HEPES (10 mM, pH 7.4)-buffered Ca^2+, Mg^2+-free HBSS (H-HBSS). The solution in each well was removed from the individual well. Medium containing the test compound plus capsaicin (final concentration 0.5 μM) and ^45Ca (final concentration 10 μCi/ml) in H-HBSS was added to each well and incubated at room temperature for 10 min. Terasaki plates were washed six times with H-HBSS and dried in an oven. To each well, 0.3% SDS (10 μl) was added to elute ^45Ca. After the addition of […] of scintillation cocktail into each well, the amount of ^45Ca influx into neuron was measured by counting radioactivity.

[2] = tested on: Male ICR mice; experiment: Analgesic activity test: mouse writhing test by inducing with phenyl-p-quinone; type: in vivo; settings: ip, 30 min before phenyl-p-quinone, read-out: Analgesic effect (% Inhibition); for inhibition in vivo at 10 mg/kg: dose 10 mg/kg intraperitoneally; for inhibition in vivo at 3 mg/kg: dose 3 mg/kg intraperitoneally
Description: (3) Analgesic Activity Test: Mouse Writhing Test by Inducing with phenyl-p-quinone
Male ICR mice (mean body weight 25 g) were maintained in a controlled lighting environment (12 h on/12 h off) for experiment. Animals received an intraperitoneal injection of 0.3 ml of the chemical irritant phenyl-p-quinone (dissolved in saline containing 5% ethanol to be a dose of 4.5 mg/kg) and 6 min later, the number of abdominal constrictions was counted in the subsequent 6 min period. Animals (10 animals/group) received 0.2 ml of test compounds solution in vehicle of ethanol/Tween 80/saline (10/10/80) intraperitoneally 30 min before the injection of phenyl-p-quinone. A reduction in the number of writhes responding to the test drug compound relative to the number responding in saline control group was considered to be indicative of an analgesic effect Analgesic effect was calculated by % inhibition equation (% inhibition=(C−T)/C×100), wherein C and T represent the number of writhes in control and compound-treated group, respectively (Table 2).

[3] = tested on: Male SD rats; experiment: Ulcer test: ethanol-induced anti-ulcer test; type: in vivo, rat; settings: dose 30 mg/kg orally, 1 hour before 99% ethanol
Description: (5) Ulcer Test: Ethanol-induced Anti-ulcer Test
Male SD rats (body weight 180-200 g), 5 animals/group, were fasted for 24 hours, and their stomaches were damaged. The rats were administered with 10 ml/kg of test drug suspended in 1% methylceflulose orally and, after 1 hour, 1 ml of 99% ethanol orally. After 1 hour without food and water, the rats were sacrificed by cervical dislocation and stomaches thereof were removed. The removed stomaches were incised along the greater curvature and opened.

[4] = tested on: Male ICR mice; experiment: Antiinflammatory activity test: TPA-induced mouse ear edema test; type: in vivo; settings: dose 1 mg/ear topically, ear weight 24 h after TPA
Description: (4) Antiinflammatory Activity Test: TPA(12-O-tetraecanoylphorbol 13-acetate)-induced mouse ear edema test
Male ICR mice(body weight 25-30 g), 10 animals/group, were treated topically on the right ear with 30 μl of TPA (2.5 μg) solution in acetone and after 15 min, 30 μl of acetone or test compound solution in acetone was applied topically. After six hours, an identical treatment was applied again. After twenty four hours following the treatment of TPA, the animals were sacrificed and ear tissue was dissected using 6 mm-diameter punch. Ear tissue dissected were weighed to the nearest 0.1 mg on an electrobalance. The increased weight of the tissue compared to control group was considered as an index of inflammation. The percent inhibition is defined by the following equation:
% inhibition=(C−T)/C×100, wherein C and T represent an increase of ear weight in TPA-treated and TPA+drug-treated group, respectively (Table 3).

[5] = Table 1a, neonatal SD rat DRG neurons, inhibition of response to capsaicin 0.5 μM

Compound: Oc1cc2c(cc1O)CN(C(=S)NCCc1ccc(Cl)cc1)CCC2 [Capsazepine, capsazepine, reference compound]
- IC50 [1]: 590 nM

Compound: Cn1cccc1CCNC(=S)NCc1ccc(C(C)(C)C)cc1 [Example 5, 1-(4-t-butylbenzyl)-3-[2-(1-methyl-1H-pyrrol-2-yl)ethyl]thiourea]
- IC50 [1]: 1100 nM
- inhibition in vivo at 10 mg/kg [2]: 53%

Compound: CC(C)(C)c1ccc(CNC(=S)NCc2cc(F)c(N)cc2F)cc1 [Example 9, 1-(4-amino-2,5-difluorobenzyl)-3-(4-t-butylbenzyl)thiourea]
- IC50 [1]: 230 nM

Compound: CC(C)(C)c1ccc(CNC(=S)NCc2ccc(NS(C)(=O)=O)c(F)c2)cc1 [Example 13, 1-(4-t-butylbenzyl)-3-(3-fluoro-4-methanesulfonylaminobenzyl)thiourea]
- Anti-ulcerous effect (% inhibition) [3]: 30%
- IC50 [1, 5]: 37 nM
- Anti-inflammtory effect (% Inhibition) [4]: 74%
- inhibition in vivo at 10 mg/kg [2]: 82%

Compound: CS(=O)(=O)Nc1ccc(CNC(=S)NCCc2ccccc2)cc1F [Example 15, 1-phenethyl-3-(3-fluoro-4-methanesulfonylaminobenzyl)thiourea]
- IC50 [1]: 1200 nM

Compound: CC(C)(C)c1ccc(CNC(=S)NCc2ccc(NS(C)(=O)=O)c(Cl)c2)cc1 [Example 17]
- Anti-ulcerous effect (% inhibition) [3]: 58%
- IC50 [1, 5]: 8.4 nM
- Anti-inflammtory effect (% Inhibition) [4]: 80%
- inhibition in vivo at 10 mg/kg [2]: 98%

Compound: COC(=O)c1cc(CNC(=S)NCc2ccc(C(C)(C)C)cc2)ccc1NS(C)(=O)=O [Example 18]
- IC50 [1, 5]: 720 nM

Compound: CC(C)(C)c1ccc(CNC(=S)NCc2ccc(NS(C)(=O)=O)cc2)cc1 [Example 44]
- Anti-ulcerous effect (% inhibition) [3]: 36%
- Anti-inflammtory effect (% Inhibition) [4]: 83%
- inhibition in vivo at 3 mg/kg [2]: 92%

Compound: CC(C)(C)c1ccc(CNC(=S)NCc2cccc(NS(C)(=O)=O)c2)cc1 [Example 52, 1-(4-t-butylbenzyl)-3-(3-methanesulfonylaminobenzyl)thiourea]
- inhibition in vivo at 10 mg/kg [2]: 94%

Compound: CC(=O)OCc1cc(C(C)(C)C)ccc1CNC(=S)Nc1ccc(NS(C)(=O)=O)cc1 [Example 70, 1-(2-acetoxymethyl-4-t-butylbenzyl)-3-(4-methanesulfonylaminobenzene)thiourea]
- IC50 ([1]; Table 1b, neonatal SD rat DRG neurons, inhibition of response to capsaicin 0.5 μM): 580 nM

Compound: COc1ccc2c(c1)c(CC(=O)O)c(C)n2C(=O)c1ccc(Cl)cc1 [Indomethacin, indomethacin, reference compound]
- Anti-inflammtory effect (% Inhibition) [4]: 74%
- inhibition in vivo at 3 mg/kg [2]: 94%

Compound: CNC(=C[N+](=O)[O-])NCCSCc1ccc(CN(C)C)o1 [Ranitidine, ranitidine, reference compound]
- Anti-ulcerous effect (% inhibition) [3]: 4%

The next lines start with results.

- IC50 [1]: 5.8 nM
Compound: CC(C)(C)c1ccc(CNC(=S)NCc2ccc(NS(C)(=O)=O)c(C(=O)O)c2)cc1 [Example 19, 1-(4-t-butylbenzyl)-3-(3-carboxyl-4-methanesulfonylaminobenzyl)thiourea]

- IC50 [1]: 1500 nM
Compound: COC(=O)c1cccc(CNC(=S)NCc2ccc(C(C)(C)C)cc2)c1 [Example 30]

- IC50 [1]: 31 nM
Compound: CC(C)(C)c1ccc(CNC(=S)NCc2c(F)c(F)c(NS(C)(=O)=O)c(F)c2F)cc1 [Example 32, 1-(4-t-butylbenzyl)-3-(2,3,5,6-tetrafluoro-4-methanesulfonylaminobenzyl)thiourea]

- IC50 [1]: 110 nM
Compound: CC(C)(C)c1ccc(CNC(=S)NCc2cc(F)c(NS(C)(=O)=O)cc2F)cc1 [Example 33, 1-(4-t-butylbenzyl)-3-(2,5-difluoro-4-methanesulfonylaminobenzyl)thiourea]
- Anti-ulcerous effect (% inhibition) [3]: 31%
- Anti-inflammtory effect (% Inhibition) [4]: 66%

- IC50 [1]: 1100 nM
Compound: CC(C)(C)c1ccc(CNC(=S)NCCc2ccc(NS(C)(=O)=O)cc2)cc1 [Example 36, 1-(4-t-butylbenzyl)-3-(4-methanesulfonylaminophenethyl)thiourea]

- IC50 [1]: 700 nM
Compound: CC(C)(C)c1ccc(CNC(=S)NCc2c(F)ccc(NS(C)(=O)=O)c2F)cc1 [Example 51, 1-(4-t-butylbenzyl)-3-(2,6-difluoro-3-methanesulfonylaminobenzyl)thiourea]

- IC50 [1]: 1200 nM
Compound: Cc1ncsc1CCNC(=S)NCc1ccc(C(C)(C)C)cc1 [Example 73, 1-(4-t-butylbenzyl)-3-[2-(4-methylthiazol-5-yl)ethyl]thiourea]
- Anti-ulcerous effect (% inhibition) [3]: 22%
- Anti-inflammtory effect (% Inhibition) [4]: 77%
- inhibition in vivo at 10 mg/kg [2]: 88%

- IC50 [1]: 1100 nM
Compound: CC(C)(C)c1ccc(CNC(=S)NCCc2ccccn2)cc1 [Example 83]
- inhibition in vivo at 10 mg/kg [2]: 85%

- IC50 [1]: 420 nM
Compound: CC(C)(C)c1ccc(CNC(=S)NCc2cc(F)ccc2F)cc1 [Example 90]

- IC50 [1]: 590 nM
Compound: CC(C)(C)c1ccc(CNC(=S)NCCc2cccc(F)c2)cc1 [Example 96]
- inhibition in vivo at 10 mg/kg [2]: 58%

- IC50 [1]: 810 nM
Compound: Cn1cc(NS(C)(=O)=O)cc1CNC(=S)NCc1ccc(C(C)(C)C)cc1 [Example 134]

- IC50 [1]: 950 nM
Compound: COc1cc(CCCN(Cc2ccccc2)/C(S)=N/CCc2ccccc2)ccc1O [Example 152]

- IC50 [1]: 460 nM
Compound: COc1cc(CCCN(C(=S)NCCc2ccccc2)C(c2ccccc2)c2ccccc2)ccc1O [Example 161]
- inhibition in vivo at 1 mg/kg ([2]; dose 1 mg/kg intraperitoneally): 73%

- IC50 [1]: 110 nM
Compound: CC(C)(C)c1ccc(CNC(=NC#N)NCc2ccc(NS(C)(=O)=O)cc2)cc1 [Example 178]

- IC50 [1]: 210 nM
Compound: CC(C)(C)c1ccc(CCC(=O)NCc2ccc(NS(C)(=O)=O)c(F)c2)cc1 [Example 193, N-(3-fluoro-4-methanesulfonylaminobenzyl) 3-(4-t-butylphenyl)propionamide]

- IC50 [1]: 310 nM
Compound: CNS(=O)(=O)Nc1ccc(C/N=C(\S)NCc2ccc(C(C)(C)C)cc2)cc1 [Example 194, 1-(4-t-butylbenzyl)-3-(4-methylaminosulfonylaminobenzyl)thiourea]

- IC50 [1]: 150 nM
Compound: CC(C)(C)c1ccc(CNC(=S)NCc2ccc(NS(N)(=O)=O)cc2)cc1 [Example 196, 1-(4-t-butylbenzyl)-3-(4-aminosulfonylaminobenzyl)thiourea]
